Laboratory results taken from patent US20250197457A1, “CHIMERIC IGG-FC-BINDING LIGAND POLYPEPTIDE AND USES THEREOF FOR IGG AFFINITY PURIFICATION” (Roche Diagnostics Operations, Inc., priority 2021, published 2025).
One block for each molecule: values may come before it.

Key:
[1] = target: T1, rabbit IgG (Oryctolagus cuniculus, UniProt P01870); conditions: Gong et al.; cited from earlier work
T1 construct: purchased Sigma-Aldrich

[2] = test system: human IgG; conditions: cited from earlier work
[3] = test system: IgG-Fc-region; conditions: DeLano et al. 2000; cited from earlier work
[4] = test system: human IgG; test: SPR interaction assay (Biacore), scaffolds immobilised, human IgG as analyte; format: binding; conditions: hIgG at 25° C.
Method: Surface plasmon resonance (SPR) The affinities and binding kinetics of the generated TtSlyD-Fc-III-4C mutants were evaluated by SPR using a Biacore biosensensor system. The Biacore system enables a real-time monitoring of intermolecular interactions between the ligand, immobilised on a sensor chip gold-surface, and the analyte which is free in solution and passes over the ligand (Healthcare, G., Biacore™ Assay Handbook 29-0194-00 Edition AA). Interaction of the binding partners leads to SPR signals (responses), measured in resonance units (RU) and illustrated as plot against time (sensorgram).
Regarding the procedure, in brief, the analyte is injected on the chip, interacting with the immobilised ligand. The change in concentration of molecules at the chip surface leads to a change in the refractive index, monitored as response unit (RU). Dissociation of analyte is triggered by continues buffer flow, followed by complete removal (chip regeneration) and starting of a new analysis cycle. […]
Interaction kinetics are examined by monitoring different analyte concentrations over time. Kinetic parameters, such as association (ka) and dissociation rate constants (kd) are evaluated in relation to a mathematical model. […]

T1 sequence (P01870 whole entry): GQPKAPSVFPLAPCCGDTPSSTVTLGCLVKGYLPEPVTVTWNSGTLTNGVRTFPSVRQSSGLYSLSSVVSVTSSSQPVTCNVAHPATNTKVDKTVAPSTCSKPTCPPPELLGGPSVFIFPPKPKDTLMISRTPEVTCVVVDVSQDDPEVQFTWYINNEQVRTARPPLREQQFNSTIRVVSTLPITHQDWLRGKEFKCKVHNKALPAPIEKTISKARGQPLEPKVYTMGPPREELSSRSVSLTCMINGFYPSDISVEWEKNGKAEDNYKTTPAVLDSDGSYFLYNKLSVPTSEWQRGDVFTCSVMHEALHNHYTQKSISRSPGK

Molecule: CDCAWHLGELVWCTC [Fc-III-4C]
- Kd [1]: 5.67 nM
- higher binding affinity to human IgG compared to the original Fc-III ([2]; SPR): 30 fold
- Kd ([2]; human IgG, Gong et al. 2016): 2.45 nM

Molecule: DCAWHLGELVWCT [Fc-III]
- binding affinity relative to Protein A [3]: only about two fold weaker

- binding affinity KA [4]: 1.09e+08 M⁻¹
B1: TtSlyD-Fc-III-2C Hit No. 4: SlyD chimera whose IF domain is replaced by Fc-III-XC peptide EDCAWHLGELVWCTE, SEQ ID NO: 16 (protein)
chain: MKVGQDKVVTIRYTLQVEGEVLDQGELSYLHGHRLIPGLEEALEGREEGEAFQAHVPAEKAYEDCAWHLGELVWCTEGKDLDFQVEVVKVREATPEELLHGHA
modifications: left off: small tags and cut ends
- t/2 diss [4]: 36 min
